Assay results taken from ChEMBL document CHEMBL4507265 (2021).

Columns and labels:
[1] = molecular target: LIM domain kinase 2 (Homo sapiens) (UniProt P53671); conditions: Compound concentration 1000.0 nM
[2] = tested on: Epidermal growth factor receptor (Homo sapiens), P00533 [UNDEFINED MUTATION]; conditions: Compound concentration 1000.0 nM
[3] = molecular target: Macrophage colony-stimulating factor 1 receptor (Homo sapiens) (UniProt P07333); conditions: Compound concentration 1000.0 nM
[4] = molecular target: Protein kinase C epsilon type (Homo sapiens) (UniProt Q02156); conditions: Compound concentration 1000.0 nM
[5] = molecular target: Proto-oncogene tyrosine-protein kinase ROS (Homo sapiens) (UniProt P08922); conditions: Compound concentration 1000.0 nM
[6] = molecular target: Tyrosine-protein kinase JAK1 (Homo sapiens) (UniProt P23458); conditions: Compound concentration 1000.0 nM
[7] = molecular target: Serine/threonine-protein kinase DCLK1 (Homo sapiens) (UniProt O15075); conditions: Compound concentration 1000.0 nM
Sequence of Serine/threonine-protein kinase DCLK1 (Homo sapiens) (O15075 whole entry): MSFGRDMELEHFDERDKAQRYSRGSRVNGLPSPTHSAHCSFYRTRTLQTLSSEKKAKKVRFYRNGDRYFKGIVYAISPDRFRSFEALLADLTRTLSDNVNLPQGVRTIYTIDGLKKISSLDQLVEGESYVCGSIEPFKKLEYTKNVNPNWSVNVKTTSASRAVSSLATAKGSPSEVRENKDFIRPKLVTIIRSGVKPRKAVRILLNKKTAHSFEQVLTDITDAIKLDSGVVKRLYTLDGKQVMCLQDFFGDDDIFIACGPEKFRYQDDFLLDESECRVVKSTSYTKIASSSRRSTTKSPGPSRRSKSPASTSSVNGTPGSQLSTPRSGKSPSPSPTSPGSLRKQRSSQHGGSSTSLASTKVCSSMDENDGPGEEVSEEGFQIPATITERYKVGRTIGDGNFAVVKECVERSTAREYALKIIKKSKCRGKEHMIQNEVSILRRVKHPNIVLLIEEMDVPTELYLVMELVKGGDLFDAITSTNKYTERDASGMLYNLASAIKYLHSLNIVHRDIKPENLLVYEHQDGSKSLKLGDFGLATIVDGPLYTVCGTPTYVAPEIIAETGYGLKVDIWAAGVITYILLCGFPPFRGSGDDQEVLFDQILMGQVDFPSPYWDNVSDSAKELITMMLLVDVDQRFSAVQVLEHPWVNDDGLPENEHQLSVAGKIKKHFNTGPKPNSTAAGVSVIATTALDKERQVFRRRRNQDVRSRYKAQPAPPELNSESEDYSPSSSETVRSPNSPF

[8] = molecular target: Serine/threonine-protein kinase DCLK2 (Homo sapiens) (UniProt Q8N568); conditions: Compound concentration 1000.0 nM
Sequence of Serine/threonine-protein kinase DCLK2 (Homo sapiens) (Q8N568 whole entry): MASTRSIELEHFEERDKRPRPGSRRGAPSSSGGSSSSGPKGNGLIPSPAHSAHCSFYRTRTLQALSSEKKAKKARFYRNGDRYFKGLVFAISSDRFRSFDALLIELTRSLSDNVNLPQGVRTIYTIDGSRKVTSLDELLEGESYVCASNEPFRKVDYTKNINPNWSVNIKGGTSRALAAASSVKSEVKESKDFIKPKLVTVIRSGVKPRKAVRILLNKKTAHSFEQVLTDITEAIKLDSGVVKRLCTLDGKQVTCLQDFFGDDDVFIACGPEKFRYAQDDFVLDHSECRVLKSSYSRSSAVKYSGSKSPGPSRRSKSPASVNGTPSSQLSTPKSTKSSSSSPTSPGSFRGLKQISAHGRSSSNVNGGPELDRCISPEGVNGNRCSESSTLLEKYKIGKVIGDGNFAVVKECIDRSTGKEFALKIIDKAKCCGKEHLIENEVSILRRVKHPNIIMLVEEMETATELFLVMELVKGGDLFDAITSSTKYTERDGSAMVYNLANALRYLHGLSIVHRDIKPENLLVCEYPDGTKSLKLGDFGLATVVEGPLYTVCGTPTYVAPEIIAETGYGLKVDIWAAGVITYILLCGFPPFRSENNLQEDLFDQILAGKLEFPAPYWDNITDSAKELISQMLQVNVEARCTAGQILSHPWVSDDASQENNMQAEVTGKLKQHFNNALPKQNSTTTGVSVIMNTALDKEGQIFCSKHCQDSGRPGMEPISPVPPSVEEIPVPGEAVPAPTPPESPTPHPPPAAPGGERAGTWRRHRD

[9] = molecular target: Calcium/calmodulin-dependent protein kinase kinase 1 (Homo sapiens) (UniProt Q8N5S9); conditions: Compound concentration 1000.0 nM
Sequence of Calcium/calmodulin-dependent protein kinase kinase 1 (Homo sapiens) (Q8N5S9 whole entry, looked up): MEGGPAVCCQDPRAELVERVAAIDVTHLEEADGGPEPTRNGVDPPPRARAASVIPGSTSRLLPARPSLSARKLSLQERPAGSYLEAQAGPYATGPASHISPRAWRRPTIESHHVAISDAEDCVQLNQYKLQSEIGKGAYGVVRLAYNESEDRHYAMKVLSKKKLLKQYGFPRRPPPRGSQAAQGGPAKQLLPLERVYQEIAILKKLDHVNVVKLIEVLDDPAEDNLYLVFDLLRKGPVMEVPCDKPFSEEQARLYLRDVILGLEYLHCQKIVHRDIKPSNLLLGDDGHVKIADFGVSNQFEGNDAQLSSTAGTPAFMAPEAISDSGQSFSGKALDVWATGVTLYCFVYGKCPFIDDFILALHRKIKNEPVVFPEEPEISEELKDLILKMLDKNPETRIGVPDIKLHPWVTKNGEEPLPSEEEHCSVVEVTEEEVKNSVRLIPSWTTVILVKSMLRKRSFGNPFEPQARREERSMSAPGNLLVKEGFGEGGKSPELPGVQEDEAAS

[10] = tested on: Receptor-type tyrosine-protein kinase FLT3 (Homo sapiens), P36888 [UNDEFINED MUTATION]; conditions: Compound concentration 1000.0 nM
Sequence of Receptor-type tyrosine-protein kinase FLT3 (Homo sapiens), P36888 [UNDEFINED MUTATION] (P36888 whole entry, looked up, stated change not applied): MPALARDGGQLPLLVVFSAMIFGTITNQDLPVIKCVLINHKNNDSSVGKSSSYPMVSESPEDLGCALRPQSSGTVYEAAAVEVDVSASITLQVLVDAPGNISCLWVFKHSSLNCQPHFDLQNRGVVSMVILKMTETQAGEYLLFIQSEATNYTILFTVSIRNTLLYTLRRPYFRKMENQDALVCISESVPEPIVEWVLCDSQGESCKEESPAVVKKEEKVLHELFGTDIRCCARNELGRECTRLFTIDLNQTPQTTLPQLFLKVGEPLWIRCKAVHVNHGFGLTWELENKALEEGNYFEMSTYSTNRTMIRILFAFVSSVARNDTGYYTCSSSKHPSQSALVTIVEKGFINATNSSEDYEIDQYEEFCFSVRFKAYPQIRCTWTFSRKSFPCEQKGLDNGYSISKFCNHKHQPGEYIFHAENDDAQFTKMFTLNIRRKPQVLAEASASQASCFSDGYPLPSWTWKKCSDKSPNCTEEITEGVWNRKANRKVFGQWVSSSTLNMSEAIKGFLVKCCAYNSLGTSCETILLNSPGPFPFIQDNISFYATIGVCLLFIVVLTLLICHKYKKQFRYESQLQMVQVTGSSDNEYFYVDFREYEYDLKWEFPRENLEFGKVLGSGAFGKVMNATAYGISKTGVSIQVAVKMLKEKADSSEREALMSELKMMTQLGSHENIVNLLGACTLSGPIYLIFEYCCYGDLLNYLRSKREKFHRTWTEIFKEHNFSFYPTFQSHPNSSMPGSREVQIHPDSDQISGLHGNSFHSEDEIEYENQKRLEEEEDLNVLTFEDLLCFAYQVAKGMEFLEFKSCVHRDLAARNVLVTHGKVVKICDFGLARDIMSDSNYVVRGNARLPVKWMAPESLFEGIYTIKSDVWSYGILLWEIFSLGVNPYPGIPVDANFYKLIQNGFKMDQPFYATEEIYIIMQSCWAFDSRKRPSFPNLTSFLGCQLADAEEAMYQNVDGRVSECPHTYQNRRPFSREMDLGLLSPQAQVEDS

[11] = tested on: Tyrosine-protein kinase ABL1 (Homo sapiens), P00519 [E255K]; conditions: Compound concentration 1000.0 nM
[12] = tested on: Phosphatidylinositol 4,5-bisphosphate 3-kinase catalytic subunit alpha isoform (Homo sapiens), P42336 [C420R]; conditions: Compound concentration 1000.0 nM
Sequence of Phosphatidylinositol 4,5-bisphosphate 3-kinase catalytic subunit alpha isoform (Homo sapiens), P42336 [C420R] (P42336 whole entry C420R, canonical isoform): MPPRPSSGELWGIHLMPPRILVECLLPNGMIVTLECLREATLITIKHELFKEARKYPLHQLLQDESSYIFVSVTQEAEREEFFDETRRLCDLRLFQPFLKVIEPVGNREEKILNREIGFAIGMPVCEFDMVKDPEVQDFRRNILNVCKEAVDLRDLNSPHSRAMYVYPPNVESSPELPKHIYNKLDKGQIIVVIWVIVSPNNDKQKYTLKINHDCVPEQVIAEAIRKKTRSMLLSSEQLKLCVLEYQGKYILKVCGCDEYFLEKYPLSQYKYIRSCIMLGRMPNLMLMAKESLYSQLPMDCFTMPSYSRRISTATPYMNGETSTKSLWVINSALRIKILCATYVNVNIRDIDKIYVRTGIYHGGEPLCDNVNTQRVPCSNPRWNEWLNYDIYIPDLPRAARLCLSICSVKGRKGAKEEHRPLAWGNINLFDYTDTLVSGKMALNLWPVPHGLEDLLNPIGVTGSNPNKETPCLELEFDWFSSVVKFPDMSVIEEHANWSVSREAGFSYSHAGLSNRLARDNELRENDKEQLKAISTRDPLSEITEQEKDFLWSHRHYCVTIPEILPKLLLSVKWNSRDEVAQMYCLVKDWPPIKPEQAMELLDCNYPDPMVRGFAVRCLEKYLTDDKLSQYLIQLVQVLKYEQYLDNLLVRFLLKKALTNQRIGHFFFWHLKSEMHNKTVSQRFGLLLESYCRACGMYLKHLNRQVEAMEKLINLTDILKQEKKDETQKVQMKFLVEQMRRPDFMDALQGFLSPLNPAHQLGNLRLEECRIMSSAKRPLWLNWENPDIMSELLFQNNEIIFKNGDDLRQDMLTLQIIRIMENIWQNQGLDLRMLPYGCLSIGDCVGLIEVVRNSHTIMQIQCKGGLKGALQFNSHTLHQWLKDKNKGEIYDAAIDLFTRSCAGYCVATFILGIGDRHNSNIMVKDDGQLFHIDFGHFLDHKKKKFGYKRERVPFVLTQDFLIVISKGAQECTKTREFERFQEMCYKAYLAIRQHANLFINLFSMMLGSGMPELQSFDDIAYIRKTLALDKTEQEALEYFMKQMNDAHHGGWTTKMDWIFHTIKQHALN

[13] = molecular target: Citron Rho-interacting kinase (Homo sapiens) (UniProt O14578); conditions: Compound concentration 1000.0 nM
[14] = molecular target: Histamine H3 receptor (Homo sapiens) (UniProt Q9Y5N1); conditions: Compound concentration 10.0 uM
[15] = tested on: Proto-oncogene tyrosine-protein kinase receptor Ret (Homo sapiens), P07949 [V804M]; conditions: Compound concentration 1000.0 nM
[16] = molecular target: D(1A) dopamine receptor (Homo sapiens) (UniProt P21728); conditions: Compound concentration 10.0 uM
[17] = molecular target: Cytoplasmic tyrosine-protein kinase BMX (Homo sapiens) (UniProt P51813); conditions: Compound concentration 1000.0 nM
[18] = molecular target: MAP/microtubule affinity-regulating kinase 4 (Homo sapiens) (UniProt Q96L34); conditions: Compound concentration 1000.0 nM
[19] = molecular target: T1, Alpha-1D adrenergic receptor (Homo sapiens) (UniProt P25100); assay: Inhibition of Adrenergic alpha1D at 10 µM in the Eurofins-Panlabs radioligand binding assay (Eurofins_assay_203400); conditions: Compound concentration 10.0 uM
T1 sequence (whole entry): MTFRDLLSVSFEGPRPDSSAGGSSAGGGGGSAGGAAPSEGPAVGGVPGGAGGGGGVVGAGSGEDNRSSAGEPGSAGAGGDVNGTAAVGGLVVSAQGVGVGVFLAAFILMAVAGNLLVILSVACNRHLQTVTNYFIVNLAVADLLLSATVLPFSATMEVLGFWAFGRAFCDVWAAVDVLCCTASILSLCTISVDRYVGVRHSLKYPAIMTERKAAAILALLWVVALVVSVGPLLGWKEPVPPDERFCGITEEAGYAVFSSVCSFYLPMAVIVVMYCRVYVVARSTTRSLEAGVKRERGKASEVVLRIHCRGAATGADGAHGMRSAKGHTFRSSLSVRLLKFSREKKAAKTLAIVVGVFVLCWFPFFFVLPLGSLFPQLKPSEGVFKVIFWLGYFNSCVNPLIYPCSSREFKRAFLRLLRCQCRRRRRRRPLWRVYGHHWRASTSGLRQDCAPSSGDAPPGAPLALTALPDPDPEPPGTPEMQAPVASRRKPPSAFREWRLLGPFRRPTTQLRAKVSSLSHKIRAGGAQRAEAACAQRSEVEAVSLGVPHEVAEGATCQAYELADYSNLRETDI

[20] = molecular target: Histamine H3 receptor (Homo sapiens) (UniProt Q9Y5N1); conditions: Compound concentration 10.0 uM; remark: listed apart in the source
[21] = molecular target: GABA-A receptor; anion channel (Rattus norvegicus) (UniProt O09028+P15431+P18506+P18508+P19969+P20236+P23574+P23576+P28471+P28473+P30191+P62813+P63079+P63138+Q91ZM7+Q9ES14); assay: Inhibition of GABAA, Muscimol, Central at 10 µM in the Eurofins-Panlabs radioligand binding assay (Eurofins_assay_226500); type: protein-complex assay; conditions: Compound concentration 10.0 uM
[22] = molecular target: Adenosine receptor A2a (Homo sapiens) (UniProt P29274); conditions: Compound concentration 10.0 uM
Rattus norvegicus [23] = species: Rattus norvegicus; conditions: Compound concentration 10.0 uM
[24] = molecular target: Epidermal growth factor receptor (Homo sapiens) (UniProt P00533); assay: Inhibition of Epidermal Growth Factor (EGF) at 10 µM in the Eurofins-Panlabs radioligand binding assay (Eurofins_assay_225510); conditions: Compound concentration 10.0 uM
Rattus norvegicus [25] = species: Rattus norvegicus; assay: Inhibition of Thyroid Hormone at 10 µM in the Eurofins-Panlabs radioligand binding assay (Eurofins_assay_285900); type: protein assay; conditions: Compound concentration 10.0 uM
[26] = molecular target: B1 bradykinin receptor (Homo sapiens) (UniProt P46663); assay: Inhibition of Bradykinin B1 at 10 µM in the Eurofins-Panlabs radioligand binding assay (Eurofins_assay_212510); conditions: Compound concentration 10.0 uM
[27] = molecular target: Beta-2 adrenergic receptor (Homo sapiens) (UniProt P07550); conditions: Compound concentration 10.0 uM
[28] = molecular target: B2 bradykinin receptor (Homo sapiens) (UniProt P30411); conditions: Compound concentration 10.0 uM
[29] = molecular target: voltage-gated sodium channel, site 2 (Rattus norvegicus, UniProt F1LQQ7+O08562+O88420+O88457+P04774+P04775+P08104+P15389+P15390+Q62968); assay: Inhibition of Sodium Channel, Site 2 at 10 µM in the Eurofins-Panlabs radioligand binding assay (Eurofins_assay_279510); type: protein assay; set-up: ligand concentration 5 nM, non-specific ligand with concentration 100 µM Veratridine, incubation time 60 min, incubation temperature 37 °C; conditions: male, Wistar, rat whole brain (except cerebellum) membranes, probe [3H] Batrachotoxinin, 5 nM, compound concentration 10 uM
[30] = molecular target: Endothelin receptor type B (Homo sapiens) (UniProt P24530); conditions: Compound concentration 10.0 uM
[31] = molecular target: Glutamate NMDA receptor (Rattus norvegicus) (UniProt P35439+Q00959+Q00960+Q00961+Q62645+Q8VHN2+Q9R1M7); conditions: Compound concentration 10.0 uM
[32] = molecular target: D(2) dopamine receptor (Homo sapiens) (UniProt P14416); conditions: Compound concentration 10.0 uM

Sequence of Macrophage colony-stimulating factor 1 receptor (Homo sapiens) (P07333 whole entry): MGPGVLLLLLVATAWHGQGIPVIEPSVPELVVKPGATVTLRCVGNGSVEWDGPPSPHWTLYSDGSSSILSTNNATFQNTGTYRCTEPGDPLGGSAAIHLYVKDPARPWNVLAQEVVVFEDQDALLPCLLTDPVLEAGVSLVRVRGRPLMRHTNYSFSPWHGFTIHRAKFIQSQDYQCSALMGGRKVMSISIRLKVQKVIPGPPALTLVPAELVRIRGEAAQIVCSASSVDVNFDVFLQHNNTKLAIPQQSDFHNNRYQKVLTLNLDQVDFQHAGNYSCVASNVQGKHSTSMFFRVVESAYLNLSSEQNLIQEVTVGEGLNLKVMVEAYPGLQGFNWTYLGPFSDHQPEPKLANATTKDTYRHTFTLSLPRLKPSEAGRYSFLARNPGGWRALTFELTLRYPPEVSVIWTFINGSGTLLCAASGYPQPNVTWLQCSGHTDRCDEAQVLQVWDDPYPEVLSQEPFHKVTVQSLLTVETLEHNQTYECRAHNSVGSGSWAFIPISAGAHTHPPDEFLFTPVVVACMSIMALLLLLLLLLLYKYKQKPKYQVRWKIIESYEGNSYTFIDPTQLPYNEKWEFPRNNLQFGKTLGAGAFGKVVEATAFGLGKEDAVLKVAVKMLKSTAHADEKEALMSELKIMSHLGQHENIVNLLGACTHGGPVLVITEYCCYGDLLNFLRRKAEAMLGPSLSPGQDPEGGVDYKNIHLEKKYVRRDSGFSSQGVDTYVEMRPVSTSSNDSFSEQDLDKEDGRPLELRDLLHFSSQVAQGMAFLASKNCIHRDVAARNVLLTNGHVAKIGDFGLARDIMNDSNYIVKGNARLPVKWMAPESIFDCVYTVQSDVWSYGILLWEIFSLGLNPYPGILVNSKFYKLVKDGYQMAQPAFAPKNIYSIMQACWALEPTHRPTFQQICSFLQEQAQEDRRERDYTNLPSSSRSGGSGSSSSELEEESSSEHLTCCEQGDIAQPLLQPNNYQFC

Row | Compound | residual activity [1] [%] | residual activity [3] [%] | residual activity [4] [%] | residual activity [5] [%] | residual activity [6] [%] | residual activity [7] [%] | residual activity [8] [%] | residual activity [9] [%] | residual activity [10] [%] | residual activity [11] [%] | residual activity [12] [%] | residual activity [13] [%] | residual activity [15] [%] | inhibition [16] [%] | residual activity [17] [%] | residual activity [18] [%] | also measured
1 | NS(=O)(=O)c1cc(NC(=O)C2(c3ccccc3Cl)CC2)ccc1Oc1cccc(Cl)c1 [BAY-207] | 82 | 85 | 65 | 82 | 90 | 68 | 74 | 100 | 100 | 72 | 100 | 78 | 100 | 3.57 | 87 | 82 | residual activity [2]: 75%; inhibition [14]: 3.87%
2 | NS(=O)(=O)c1cc(NC(=O)Cc2ccccc2)ccc1Oc1cccc(Cl)c1 [BAY-1797] | 88 | 87 | 87 | 81 | 99 | 86 | 99 | 100 | 97 | 69 | 62 | 100 | 100 | 21.6 | 94 | 100 | inhibition [19]: 5%; inhibition [20]: 0%; inhibition [21]: 15%; inhibition [22]: 14%; inhibition (Rattus norvegicus [23]): -10%; inhibition [24]: 2%; inhibition (Rattus norvegicus [25]): 2%; inhibition [26]: 11%; inhibition [27]: 18.9%; inhibition [28]: 10%; inhibition at 60 min, 10 µM [29]: 57%; inhibition [30]: -1%; inhibition [31]: 23%; inhibition [32]: 15%
